Results on 6 compounds are retold here after article PMC6374920, “Synthesis and biological evaluation of 3-arylcoumarins as potential anti-Alzheimer's disease agents” (Journal of Enzyme Inhibition and Medicinal Chemistry, 2019).

As a reminder, the IC50 is the concentration that inhibits the measured activity by half.

SMILES strings stand for the structures.

The nature of experiment [1]: In vitro antioxidant activity, FRAP assay. Particulars: FeSO4 as standard; mean ± SD (n = 3). The procedure: The total antioxidant capacity of the 3-arylcoumarin compounds was measured by the FRAP (the Ferric Reducing Ability of Plasma) assay of Benzie et al.[29] with slight modifications. This method is based on the reduction of colourless Fe(III)-TPTZ(2,4,6-Tris(2-pyridyl)-s-triazine) complex to coloured Fe(II)-TPTZ complex by the compounds. FRAP working solution (300 mmol/L acetate buffer, 10 mmol/L TPTZ, 20 mmol/LFeCl3) was ready to use. A hundred microlitres of the sample solution was added to 3 ml of FRAP reagent and then incubated at 37 °C for 15 min. The experiments were repeated for three times. The absorbance was measured at 593 nm to clarify the changes. The standard curve was drawn with FeSO4 as standard material, and the regression equation was obtained. With 1.0 mmol/L FeSO4 as standard, the antioxidant activity of the sample is expressed in millimoles of […] required to achieve the same absorbance.

Experiment [2] deals with AChE from electric eel (Electrophorus electricus, UniProt O42275). As to conditions: read-out: IC50 value AChE inhibitory activity, mean ± SD (n = 3). The procedure: (§1) The anticholinesterase activity of the 3-arylcoumarin compounds was determined by the method of Ellman et al.[25] with slight modifications. AChE inhibitory activities were determined by AChE from electric eel (Macklin). BuChE inhibitory activities were determined by BuChE from horse serum (Aladdin). To a 10 ml tube, 2.65 ml of phosphate buffer solution (0.1 M, pH = 8.0), 100 µL of 5,5-dithiobis-2-nitrobenzoic acid (0.75 mM in 0.1 M phosphate buffer solution, pH = 8.0) were added sequentially, 50 µL AChE solution (0.2 U/mL in 0.1 M phosphate buffer solution, pH = 8.0), 100 µL of different concentrations of the sample solution, shaken well, and incubated at 37 °C for 5 min. Then 100 µL of substrate (1.5 mM in 0.1 M phosphate buffer solution, pH = 8.0) were added, shaken well, and incubated at 37 °C for 20 min. After the reaction was completed, 1 ml of sodium lauryl sulphate (4%, SDS in water) was added. […] Determination of the inhibitory activity of BuChE is similar. The sample blank group replaced the substrate with PBS, and the blank group replaced the sample solution with a solvent. The sample solution was set to five concentration gradients and the experiment was repeated three times. […] Cholinesterase inhibitory effect (%)=[A0−(A1−A2)]/A0×100% where A0 is the absorbance of blank group; A1 is the absorbance of sample group; A2 is the absorbance of sample blank group.

The target of experiment [3] is BuChE from horse serum (Equus caballus, UniProt P81908). Particulars: for IC50: read-out: IC50 value BuChE inhibitory activity, BuChE from horse serum, mean ± SD (n = 3). The procedure:
as §1

The target in experiment [4] is T1, MAO-B (Rattus norvegicus, UniProt P19643).
T1 construct: The crude enzyme was extracted from the liver of 200–250 g of Wistar rats; from tissue; host or cells: Wistar rat liver, crude enzyme extract
T1 sequence (P19643 1-520): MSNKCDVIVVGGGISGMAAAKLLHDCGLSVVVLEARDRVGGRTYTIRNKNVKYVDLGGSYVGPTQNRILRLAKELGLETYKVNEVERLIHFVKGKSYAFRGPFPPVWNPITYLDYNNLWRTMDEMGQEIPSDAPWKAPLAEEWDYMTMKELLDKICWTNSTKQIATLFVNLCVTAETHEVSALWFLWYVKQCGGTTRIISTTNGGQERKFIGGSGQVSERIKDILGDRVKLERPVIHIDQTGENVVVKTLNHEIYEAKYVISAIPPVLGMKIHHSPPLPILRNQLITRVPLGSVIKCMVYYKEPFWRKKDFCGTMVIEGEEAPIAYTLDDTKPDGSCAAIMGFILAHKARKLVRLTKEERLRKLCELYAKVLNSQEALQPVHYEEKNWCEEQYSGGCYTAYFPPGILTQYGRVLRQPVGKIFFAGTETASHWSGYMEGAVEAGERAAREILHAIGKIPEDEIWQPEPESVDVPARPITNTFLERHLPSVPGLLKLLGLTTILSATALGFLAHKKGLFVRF
Kind of experiment: In vitro monoamine oxidase inhibitory activity (Holt method, crude enzyme from rat liver). As to conditions: crude enzyme from Wistar rat liver; mean ± SD (n = 3). In kind it is biochemical. The procedure: The MAO inhibitory activity of the 3-arylcoumarin compounds was determined by the method of Holt et al.[26] with slight modifications. The crude enzyme was extracted from the liver of 200–250 g of Wistar rats according to literature methods. The crude enzyme protein content was determined by the Bradford/method using a Bradford Protein Assay Kit (Beyotime). Forty microlitres of enzyme solution and 40 µL of sample solution were added to a 96-well plate. The solution was then incubated at 37 °C for 20 min. One-twenty microlitres of the 4-(trifluoromethyl) benzylamine solution and 40 µL of the chromogenic agent (1 mmol/L vanillic acid, 0.5 mmol/L 4-aminoantipyrine, 4U/mL horseradish peroxidase, 0.2 M pH = 7.6 PBS constant volume) were added subsequently, and incubated at 37 °C for 90 min. The absorbance was measured at 490 nm using a microplate reader, and the inhibition rate of MAO and the IC50 value of each sample were calculated according to the formula. The control group replaced the sample solution with PBS (0.2 M, pH = 7.6), the positive control replaced the sample with the positive drug, and the blank group replaced the substrate with PBS, and each group was measured three times in parallel to average. Monoamineoxidase inhibitory effect (%)=[(AC−AB)−(AS−ASB)]/(AC−AB)×100% where AC is the absorbance of control group; AB is the absorbance of blank group; AS is the absorbance of sample group; ASB is the absorbance of sample blank group.
MAO plays an important role in neurotransmitter inactivation, and MAO dysfunction is considered to be the cause of many mental and neurological diseases. MAO plays an important role in AD pathology, and the progress of AD has a close correlation with MAO activity[35]^,[36]. All the synthesised compounds were evaluated for their MAO inhibitory activity in the way of Holt[26] by references. […] The MAO used in the experiment was self-made.

Chain of BuChE from horse serum (P81908 whole entry): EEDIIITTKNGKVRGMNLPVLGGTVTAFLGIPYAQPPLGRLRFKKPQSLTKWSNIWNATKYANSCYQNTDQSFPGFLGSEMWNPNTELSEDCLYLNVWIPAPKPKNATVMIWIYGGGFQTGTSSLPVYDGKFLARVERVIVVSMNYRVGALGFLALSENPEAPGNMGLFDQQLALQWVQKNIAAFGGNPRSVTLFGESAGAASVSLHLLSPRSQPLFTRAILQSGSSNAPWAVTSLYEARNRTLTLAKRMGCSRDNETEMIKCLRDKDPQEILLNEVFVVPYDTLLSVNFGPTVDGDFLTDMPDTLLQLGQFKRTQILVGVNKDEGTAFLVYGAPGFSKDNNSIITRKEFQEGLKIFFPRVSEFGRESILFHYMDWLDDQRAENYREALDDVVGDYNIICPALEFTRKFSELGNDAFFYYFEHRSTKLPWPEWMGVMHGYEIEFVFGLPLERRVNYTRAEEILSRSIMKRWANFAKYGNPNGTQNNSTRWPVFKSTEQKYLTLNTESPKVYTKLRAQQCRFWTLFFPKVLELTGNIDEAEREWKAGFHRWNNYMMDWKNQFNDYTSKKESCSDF
Chain of AChE from electric eel (O42275 24-633): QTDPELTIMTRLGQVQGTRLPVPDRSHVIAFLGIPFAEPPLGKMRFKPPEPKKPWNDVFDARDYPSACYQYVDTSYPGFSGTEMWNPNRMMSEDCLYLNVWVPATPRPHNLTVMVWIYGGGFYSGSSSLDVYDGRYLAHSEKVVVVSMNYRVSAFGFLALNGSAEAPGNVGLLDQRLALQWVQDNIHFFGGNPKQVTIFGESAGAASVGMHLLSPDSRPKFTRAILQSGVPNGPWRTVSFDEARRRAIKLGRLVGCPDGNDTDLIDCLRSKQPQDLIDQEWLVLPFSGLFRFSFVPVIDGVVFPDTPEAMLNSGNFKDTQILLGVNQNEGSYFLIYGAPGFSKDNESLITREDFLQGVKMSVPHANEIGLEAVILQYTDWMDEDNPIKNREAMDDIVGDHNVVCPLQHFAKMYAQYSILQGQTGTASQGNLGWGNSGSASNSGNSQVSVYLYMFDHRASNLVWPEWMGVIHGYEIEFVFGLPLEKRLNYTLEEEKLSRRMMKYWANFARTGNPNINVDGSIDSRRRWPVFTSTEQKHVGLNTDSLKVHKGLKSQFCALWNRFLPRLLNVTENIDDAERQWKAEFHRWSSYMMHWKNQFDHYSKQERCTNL

Turning to `O=C1O[C@H]([C@@H](O)CO)C(O)=C1O` [Ascorbic Acid, reference compound], the “FRAP value Antioxidant activity” value in experiment [1] is recorded as 3.79 ± 0.08 mmol/g.
As to `O=c1oc2ccccc2cc1-c1ccc(O)cc1` [Compound 1], the IC50 in experiment [2] is 78.5 ± 2.84 µM; in experiment [3], 44.8 ± 2.35 µM; in experiment [4], more than 700 µM. The “FRAP value Antioxidant activity” value in experiment [1] is given as 0.51 ± 0.09 mmol/g.
As for `O=c1oc2cc(O)ccc2cc1-c1ccc(O)cc1` [Compound 4], the IC50 in experiment [3] is 34.7 ± 1.87 µM; in experiment [4] it was more than 700 µM. In addition, in experiment [1], the “FRAP value Antioxidant activity” value was determined as 7.73 ± 0.12 mmol/g.
`O=c1oc2cc(O)ccc2cc1-c1ccccc1` [Compound 5]: the “selectivity BuChE over AChE (in words)” value in experiment [3] (BuChE vs AChE inhibition) is recorded as “selective BuChE inhibitory activity”. For the same compound, the results for the IC50 in experiment [3] and in experiment [4] were 14.4 ± 1.94 µM and more than 700 µM, respectively. The “FRAP value Antioxidant activity” value in experiment [1] is recorded as 0.42 ± 0.01 mmol/g.
For the compound `COc1ccc(-c2cc3ccc(O)cc3oc2=O)cc1` [Compound 9], the IC50 in experiment [3] was 30.1 ± 3.06 µM; in experiment [4] it was more than 700 µM. For the same compound, the “FRAP value Antioxidant activity” value in experiment [1] stood at 0.67 ± 0.04 mmol/g.
In the case of `COc1ccc2cc(-c3ccc(O)cc3)c(=O)oc2c1` [Compound 13], the IC50 in experiment [2] is 42.4 ± 3.16 µM; in experiment [3] it was 70.7 ± 5.75 µM; in experiment [4], more than 700 µM. Further, the “FRAP value Antioxidant activity” value in experiment [1] came to 0.61 ± 0.11 mmol/g.
